In ChEMBL document CHEMBL3751697, “Enantiomeric 3-deaza-1',6'-isoneplanocin and its 3-bromo analogue: Synthesis by the Ullmann reaction and their antiviral properties” (Bioorg Med Chem Lett, 2016):
Activity calls are given as the source filed them. The calls are words filed in the database; no cut-off is given here.

Experiments:
[1] = Cytotoxicity against human HepG2 cells; format: cell-based
West Nile virus = test: Antiviral activity against West Nile virus; format: functional, organism-based
[2] = tested on: Venezuelan equine encephalitis virus; test: Antiviral activity against Venezuelan equine encephalitis virus; format: functional, organism-based
Measles morbillivirus = test: Antiviral activity against Measles virus; format: functional, organism-based
Punta Toro virus = test: Antiviral activity against Punta Toro virus; format: functional, organism-based
Vaccinia virus = test: Antiviral activity against Vaccinia virus; format: functional, organism-based; conditions: Orthopoxvirus vaccinia
Ebolavirus [3] = test: Antiviral activity against Zaire ebolavirus infected in human HepG2 cells; format: functional, cell-based; conditions: Orthoebolavirus
Human betaherpesvirus 5 = test: Antiviral activity against Human cytomegalovirus; format: functional, organism-based
Lyssavirus rabies = test: Antiviral activity against Rabies virus; format: functional
Monkeypox virus = test: Antiviral activity against Monkeypox virus; format: functional, organism-based
Enterovirus C = test: Antiviral activity against Poliovirus; format: functional, organism-based
Nipah virus = test: Antiviral activity against Nipah virus; format: functional, organism-based; conditions: Henipavirus nipahense
[4] = tested on: Japanese encephalitis virus; test: Antiviral activity against Japanese encephalitis virus; format: functional, organism-based
Chikungunya virus = test: Antiviral activity against Chikungunya virus; format: functional
[5] = Cytotoxicity against African monkey Vero cells; format: cell-based; conditions: chlorocebus sabaeus
Dengue virus = test: Antiviral activity against Dengue virus; format: functional, organism-based
Tacaribe virus = test: Antiviral activity against Tacaribe virus; format: functional, organism-based; conditions: Mammarenavirus tacaribeense
Ebolavirus [6] = test: Antiviral activity against Zaire ebolavirus infected in African monkey Vero cells; format: functional, cell-based; conditions: Orthoebolavirus
Yellow fever virus = test: Antiviral activity against Yellow fever virus; format: functional, organism-based
Hepatitis C virus = test: Antiviral activity against Hepatitis C virus; format: functional, organism-based; conditions: Hepacivirus hominis
Rift Valley fever virus = test: Antiviral activity against Rift Valley fever virus; format: functional, organism-based
[7] = Selectivity index, ratio of CC50 for African monkey Vero cells to EC50 for Zaire ebolavirus; format: toxicity, cell-based; conditions: read-out: Ratio CC50/EC50
Hepatitis B virus = test: Antiviral activity against Hepatitis B virus; format: functional, organism-based
Norovirus = test: Antiviral activity against Norovirus; format: functional
[8] = Selectivity index, ratio of CC50 for human HepG2 cells to EC50 for Zaire ebolavirus; format: toxicity, cell-based; conditions: read-out: Ratio CC50/EC50

Compound	CC50 [1] [µM]	Activity (West Nile virus)	Activity [2]	Activity (Punta Toro virus)	Activity (Vaccinia virus)	EC50 (Ebolavirus [3]) [µM]	EC90 (Ebolavirus [3]) [µM]	EC50 (Human betaherpesvirus 5) [µM]	Activity (Lyssavirus rabies)	Activity (Monkeypox virus)	Activity (Enterovirus C)	Activity (Nipah virus)	Activity [4]	EC50 (Measles morbillivirus) [µM]	Activity (Chikungunya virus)	CC50 [5] [µM]	Activity (Dengue virus)	Activity (Tacaribe virus)	EC50 (Ebolavirus [6]) [µM]	Activity (Yellow fever virus)	other results
Nc1nccc2c1ncn2C1=C[C@@H](CO)[C@H](O)[C@@H]1O	> 100	inactive	inactive	inactive	inactive	< 0.32	< 0.32	< 0.1	inactive	inactive	inactive										Activity (Measles morbillivirus): inactive
Nc1ncc(Br)c2c1ncn2C1=C[C@H](CO)[C@@H](O)[C@H]1O								< 0.1				inactive	inactive	< 0.29	inactive	> 100	inactive	inactive	< 0.1	inactive	Activity (Hepatitis C virus): inactive; Activity (Rift Valley fever virus): inactive; selectivity ratio [7]: > 1000
Nc1ncc(Br)c2c1ncn2C1=C[C@@H](CO)[C@H](O)[C@@H]1O								< 0.1				inactive	inactive	< 0.29	inactive	> 100	inactive	inactive	3.51	inactive	Activity (Hepatitis C virus): inactive; Activity (Rift Valley fever virus): inactive; selectivity ratio [7]: > 28.5; EC50 (Hepatitis B virus): 3.25 µM; EC50 (Norovirus): 1.3 µM
Nc1nccc2c1ncn2C1=C[C@H](CO)[C@@H](O)[C@H]1O	> 100	inactive	inactive	inactive	inactive	< 0.32	74.1	< 0.1	inactive	inactive	inactive			< 0.38							
Nc1ncc(Br)c2c1ncn2[C@@H]1C=C(CO)[C@@H](O)[C@H]1O	21.1					< 0.32	3.02														selectivity ratio [8]: > 67
